Experimental data: EP2433624B1, “Use of buparvaquone for controlling mites parasitising honeybees” (Bimeda International Pharmaceuticals Limited, priority 2010, dated 2012)

Legend:
Varroa mites [1] = assay: Efficacy of BPQ B against Varroa mites on honeybees fed treated sucrose solution; assay type: in vivo; conditions: summary statement
Protocol: Example 6 - Toxicity of BPQ B to Varroa mites on honeybees when fed treated sucrose solution
To estimate the percentage efficacy of BPQ at different concentrations in sucrose solution
A total of 20 newly emerged Varroa infested bees were placed in hoarding cages. The cages were prepared as described in Section 1.0, except that the air vents were reduced in size using parafilm to prevent the Varroa mites escaping during the test period. The mean(±se) number of mites per 20 bees was estimated prior to commencement of the experiment and an additional 5 mites per cage were added. (mean±se = 10.6±0.33). This was carried out by collecting adult female mite from drone pupae, placing them in an eppendorf tube and then releasing them into the cages.
The treatment solution was made by dissolving BPQ B in solvent, followed by two aqueous serial dilutions producing a concentration of 500µg/mL and 5 µg/mL. From the latter, further serial dilutions were carried with sucrose solution producing the following concentrations: • 0.5µg/mL. (C1-C3) • 0.05µg/mL. (D1-D3) • 0.005µg/mL. (E1-E3) • 0.0005µg/mL. (F1-F3) • 0.00005µg/mL (G1-G3)
(§1) Three replicates were established at each concentration plus a control group which were only fed sugar syrup. All cages were placed in the incubator at 32°C and monitored on a daily basis for the number of mites and number of bees knocked down. At the end of five day treatment period, the percentage efficacy of the treatment was estimated by treating bees in all cages with Apistan (Trade Mark of Vita (Europe) Ltd. Apistan contains fluvalinate which is a synthetic pyrethroid. % efficacy = mites knocked from treatment/total mites (treatment+Apistan)*100 [formula]

Varroa mites [2] = assay: Efficacy of BPQ B against Varroa mites on honeybees sprayed with an aqueous solution; assay type: in vivo; conditions: summary statement
Protocol: Example 7 - Toxicity of BPQ B to Varroa mites on honeybees when sprayed with an aqueous solution of the active ingredient
To estimate the percentage efficacy of BPQ B at different concentrations when sprayed as an aqueous solution onto adult bees
A total of 20 newly emerged Varroa infested bees were placed in hoarding cages. The cages were prepared as described in Section 1.0, except that the air vents were reduced in size using parafilm to prevent the Varroa mites escaping during the test period. The mean(±se) number of mites per 20 bees was estimated prior to commencement and an additional 10 mites per cage were added. Mites were collected and introduced as described above. The treatment solution was made by dissolving BPQ B in solvent, followed by two aqueous serial dilutions producing a concentration of 500µg/mL and 5µg/mL. From the latter, further serial dilutions were carried in water producing the following concentrations: • 0.5µg/mL. (C1-C3) • 0.05µg/mL. (D1-D3) • 0.005µg/mL. (E1-E3) • 0.0005µg/mL. (F1-F3) • 0.00005µg/mL (G1-G3)
as §1, with “sprayed with water only. All test groups were” for “only”, “10mL of 1:1 sucrose:water solution and” for “sugar syrup. All cages were”, “Apistan.” for “Apistan (Trade Mark of Vita (Europe) Ltd. Apistan contains fluvalinate which is a synthetic pyrethroid.”

honeybee larvae = assay: Toxicity of BPQ B to honeybee larvae when fed treated syrup; assay type: in vivo, Apis mellifera; conditions: colony fed treated syrup
Excerpt: To measure the effect of treatment on developing larvae when fed syrup treated with BPQ powder, BPQ B, dissolved in the solvent (N-methyl pyrollidone) and diluted in an aqueous solution.
Apidae boxes were used to raise young queens and when virgin queens started to lay an area 6cm x 3cm were marked and missing cells were noted. The miniature colony was fed treated syrup, which was made by dissolving BPQ B powder in solvent, followed by serial dilutions using a sucrose solution (2 parts sugar: 1 part water). The concentrations administered are given below. Two replicates were carried out for the product, while 1 colony (apidae) was used for each of the solvent concentrations.

For `CC(C)(C)[C@H]1CC[C@H](CC2=C(O)C(=O)c3ccccc3C2=O)CC1` [BPQ, buparvaquone], the “effective, application via bee feed route” value (Varroa mites [1]) was 82%, the “effective, topical application” value (Varroa mites [2]) was about 40% and the “development of developing larvae” value (honeybee larvae) was “no negative effects”.
